Entries after “also recorded” stand apart in the source; their conditions may differ. Read-outs that look alike come from different tables or passages of the source.
How the values were obtained:
[1] = test system: IL-10; test: Purinergic compounds on LPS+PHA-induced IL-10 release in whole blood, Experiment 3; format: cell-based, human; conditions: pretreatment of whole blood; initial findings; ATP compared with ADP, AMP or adenosine
Procedure: (§1) Blood is collected as described for Experiment 1. Whole blood is then aliquoted into 24-well sterile plates and diluted 1:4 with RPMI 1640 (supplemented with L-glutamine). To induce cytokine production, PHA and bacterial LPS are added to whole blood at 1 μg/ml and 10 μg/ml respectively. After addition of ATP and stimulants, the plates are incubated in 5% CO2 at 37° C. for 24 h. Cell-free supernatant fluids are then collected by centrifugation (6000 rpm, 10 min at 4° C.) and stored at −20° C. until tested for presence of cytokines. All incubations are performed in duplicate. ATP, dissolved in RPMI 1640 culture medium, is added to the blood at a final concentration of 1-1000 μM. Blood is pre-incubated with ATP at 5% CO2 at 37° C. for 30 min before stimulation with LPS+PHA. The agonists are added in the same way as ATP, however their stock solutions are prepared in PBS and further diluted in medium.

[2] = test system: TNF-α; test: Purinergic compounds on LPS+PHA-induced TNF-α secretion in whole blood, Experiment 3; format: cell-based, human; conditions: for inhibiting TNFα production in LPS-PHA stimulated whole blood, compared with ATP: pretreatment of whole blood, initial findings, ATP compared with ADP, AMP or adenosine; for effect on LPS+PHA-induced TNF-α release (FIG. 8): compound at 300 μM, 24 h, order of inhibition adenosine<AMP<ADP<ATP; for anti-inflammatory effects relative to those of ATP: same whole blood model ex vivo
Procedure: as §1

[3] = test system: mice bearing colon tumour; conditions: daily intraperitoneal injections of 25 mmol/L for 10 consecutive days (refs 9, 10), cited from earlier work
[4] = test system: patients with non-small cell lung cancer; conditions: 8 stage IIIB/IV patients; 2 to 3 intravenous courses of 96 hours at 4-week intervals (ref 11); cited from earlier work
[5] = test system: IL-6; test: LPS+PHA-induced IL-6 secretion in whole blood under oxidative stress (H2O2), Experiment 2; format: cell-based, human; conditions: whole blood with 1 or 10 mM H2O2, 24 h; ATP 1-300 μM; disodium salt
Procedure: (§2) Blood was collected from 8 healthy subjects in heparin containing vacutainer tubes (Vacutainer, Becton-Dickinson, 170 I.U). […] Whole blood was aliquoted into 24-well sterile plates and diluted 1:4 with RPMI 1640 (supplemented with L-glutamine). To induce cytokine production, PHA and bacterial LPS were added at 1 μg/ml and 10 μg/ml final concentration respectively. After adding the concentrated solutions of ATP and the stimulants the plates were incubated in 5% CO2 at 37° C. for 24 h. After the incubation cell-free supernatant fluids were collected by centrifugation (6000 rpm, 10 min at 4° C.) and stored at −20° C. until tested for presence of cytokines.
(§3) All cytokines were quantified by means of PeliKine Compact human ELISA kits (CLB/Sanquin, The Netherlands), based on appropriate and validated sets of monoclonal antibodies. Assays were performed as follows. […] The antibody on the microtiter plate then captured the cytokine present in a measured volume of sample or standard, and non-bound material was removed by washing. […] Color development was stopped by addition of sulfuric acid and the intensity of the color was measured by a microtiter plate reader (absorbance at 450 nm). The absorbance was transformed to cytokine concentrations (ng/L) using the standard curve. […]

[6] = test system: TNF-α; test: LPS+PHA-induced TNF-α secretion in whole blood under oxidative stress (H2O2), Experiment 2; format: cell-based, human; conditions: whole blood with 1 or 10 mM H2O2, 24 h; effect at 100 and 300 μM ATP; disodium salt
Procedure: as §2, §3

[7] = test system: IL-6; test: LPS+PHA-induced IL-6 secretion in whole blood ex vivo (ELISA), Experiment 1; format: cell-based, human; conditions: whole blood of healthy subjects, 24 h; ATP 1-300 μM; disodium salt
Excerpt: (§4) For the first experiment, purified phyto-haemagglutinin HA16 (PHA) and E. Coli 0.26: B6 lipopolysaccharide (LPS) were from Murex, Dartford, UK and Sigma Chemical Co, St. Louis, USA, respectively. Human TNF-α (7300 pg/ml) was obtained from CLB/Sanquin, The Netherlands. RPMI 1640 medium containing L-glutamine was obtained from Gibco, UK. Adenosine-5′-triphosphate disodium salt (ATP) was purchased from Calbiochem, USA.
(§5) Blood was collected from 8 healthy subjects in heparin containing vacutainer tubes (Vacutainer, Becton-Dickinson, 170 I.U). […] Whole blood was aliquoted into 24-well sterile plates and diluted 1:4 with RPMI 1640 (supplemented with L-glutamine). To induce cytokine production, PHA and bacterial LPS were added at 1 μg/ml and 10 μg/ml final concentration respectively. […]
as §3, with “antibodies.” for “antibodies. Assays were performed as follows.”

[8] = test system: IL-10; test: LPS+PHA-induced IL-10 secretion in whole blood under oxidative stress (H2O2), Experiment 2; format: cell-based, human; conditions: whole blood with 1 or 10 mM H2O2, 24 h; ATP 1-300 μM; disodium salt
Procedure: as §2, §3

[9] = test system: patients with non-small cell lung cancer; conditions: 15 newly diagnosed patients; after 4 ATP courses (ref 12); cited from earlier work
[10] = test system: cancer patients; test: Safety of intravenous ATP home infusions in cancer patients; format: in vivo, human; conditions: over 60 intravenous home infusions in cancer patients
Excerpt: In order to determine the tolerance for ATP as well as the maximally tolerated dose of ATP, the first ATP infusion is preferably administered under medical supervision, usually in an in- or outpatient setting. Subsequent infusions can either be started at the hospital day care centre, at private homes, nursing homes, etc. according to a standardized protocol.

[11] = test system: TNF-α; test: LPS+PHA-induced TNF-α secretion in whole blood ex vivo (ELISA), Experiment 1; format: cell-based, human; conditions: 24 h
Excerpt: as §4, §5
as §3, with “antibodies.” for “antibodies. Assays were performed as follows.”

[12] = test system: healthy non-smoking human subjects; test: Lactulose/rhamnose (L/R) intestinal permeability test after indomethacin, Experiment 4; format: in vivo; conditions: indomethacin (75 mg + 50 mg) and ATP into duodenum vs indomethacin only; 5 h urine
Procedure: Methods Intestinal permeability is tested in healthy non-smoking human subjects using the lactulose/rhamnose (L/R) intestinal permeability test. This barrier function test is based on the comparison of intestinal permeation of molecules of different sizes by measuring the ratio of urinary excretion of the disaccharide lactulose and the monosaccharide rhamnose. These two sugars follow different routes of intestinal permeation, i.e., lactulose permeates through the paracellular pathway, whereas rhamnose permeates transcellulary. The experiments are performed as follows: at t=−14 hrs, a Bengmark-type naso-intestinal tube (Flocare, Zoetermeer, The Netherlands) is installed into the stomach. Next, at t=−10 hrs, subjects ingest a capsule of indomethacin (75 mg) immediately followed by administration of either ATP or placebo directly into the subject's duodenum through the inserted tube. At t=−1 hr, after an overnight fast, subjects receive a second dose of indomethacin (50 mg) followed by either ATP or placebo. Then, at t=0, the permeability test is performed as follows: subjects ingest a hyperosmolar drink containing 5 g of lactulose and 0.5 g of L-rhamnose dissolve d in […] water. After ingestion of the hyperosmolar test drink, total urine produced over 5 hours is collected.

[13] = test system: IL-10; test: LPS+PHA-induced IL-10 secretion in whole blood ex vivo (ELISA), Experiment 1; format: cell-based, human; conditions: 24 h
Excerpt: as §4, §5
as §3, with “antibodies.” for “antibodies. Assays were performed as follows.”

[14] = test system: advanced non-small-cell lung cancer patients; conditions: cited from earlier work
[15] = whole blood of healthy subjects, effect at 100 and 300 μM ATP (tested 1-300 μM), disodium salt

Compound: CSc1nc(N)c2ncn([C@@H]3O[C@H](COP(=O)(O)OP(=O)(O)OP(=O)(O)O)[C@@H](O)[C@H]3O)c2n1 [2-MeS-ATP, reference compound]
- stimulating IL-10 production in LPS-PHA stimulated whole blood, compared with ATP [1]: at least partly mimicked
- inhibiting TNFα production in LPS-PHA stimulated whole blood, compared with ATP [2]: at least partly mimicked

Compound: Nc1ncnc2c1ncn2[C@@H]1O[C@H](COP(=O)(O)OP(=O)(O)O)[C@@H](O)[C@H]1O [ADP]
- effect on LPS+PHA-induced TNF-α release (FIG. 8) [2]: inhibited
- anti-inflammatory effects relative to those of ATP [2]: less marked

Compound: Nc1ncnc2c1ncn2[C@@H]1O[C@H](COP(=O)(O)O)[C@@H](O)[C@H]1O [AMP]
- host weight loss [3]: significant inhibition of host weight loss
- effect on LPS+PHA-induced TNF-α release (FIG. 8) [2]: inhibited
- anti-inflammatory effects relative to those of ATP [2]: less marked

Compound: Nc1ncnc2c1ncn2[C@@H]1O[C@H](COP(=O)([O-])OP(=O)([O-])OP(=O)(O)O)[C@@H](O)[C@H]1O.[Na+].[Na+] [ATP, Adenosine-5′-triphosphate disodium salt]
- body weight [4]: stabilisation of body weight
- effect on LPS+PHA-induced IL-6 release under oxidative stress [5]: no effect; also recorded: not influenced
- effect on LPS+PHA-induced TNF-α release under oxidative stress [6]: dose-dependent reduction; also recorded: significantly inhibited
- effect on LPS+PHA-induced IL-6 release [7]: failed to significantly alter; also recorded: not influenced
- effect on LPS+PHA-induced IL-10 release under oxidative stress [8]: significant, dose-dependent rise; also recorded: significantly increased
- host weight loss [3]: significant inhibition of host weight loss
- average weight gain [9]: 1.3 kg
- hospital admissions [10]: No hospital admissions were necessary
- serious side effects on the WHO Common Toxicity Criteria scale [10]: no serious side effects grade 3-4
- stimulating IL-10 production in LPS-PHA stimulated whole blood, compared with ATP [1]: more effective
- inhibition at 300 µM ([11]; Homo sapiens, 300 μM ATP, whole blood, 10 μg/ml LPS + 1 μg/ml PHA, vs stimulation without ATP, read-out: inhibition of the TNF-α production): 65%
- effect on LPS+PHA-induced TNF-α release [11, 15]: dose-dependent inhibition; also recorded: significantly inhibited
- urinary concentration ratio of lactulose relative to rhamnose [12]: lower
- stimulation of the IL-10 production ([13]; 300 μM ATP, whole blood, 10 μg/ml LPS + 1 μg/ml PHA, vs stimulation without ATP): 62%
- effect on LPS+PHA-induced IL-10 release [13, 15]: increased the release of IL-10; also recorded: significantly increased
- effect on LPS+PHA-induced TNF-α release (FIG. 8) [2]: greatest inhibition
- inhibiting TNFα production in LPS-PHA stimulated whole blood, compared with ATP [2]: more effective
- physical and functional quality of life, appetite, and muscle strength ([14]; ATP group, progressively deteriorated in control group (ref 13)): remained stable
- life-threatening side effects ([14]; ATP infusion during 30 hrs, previous study (13)): did not find any life-threatening side effects
- plasma levels of pro- or anti-inflammatory cytokines ([14]; further analyses, Dagnelie et al. 2003, unpublished data): no effect
- loss of weight and muscle mass ([14]; regular infusions vs control group with supportive care only (ref 13)): inhibited loss of weight and muscle mass

Compound: Nc1ccn([C@@H]2O[C@H](COP(=O)(O)OP(=O)(O)OP(=O)(O)O)[C@@H](O)[C@H]2O)c(=O)n1 [CTP]
- effect on LPS+PHA-induced TNF-α release (FIG. 8) [2]: not inhibited

Compound: O=c1ccn([C@@H]2O[C@H](COP(=O)(O)OP(=O)(O)O)[C@@H](O)[C@H]2O)c(=O)[nH]1 [UDP]
- effect on LPS+PHA-induced TNF-α release (FIG. 8) [2]: not inhibited

Compound: O=c1ccn([C@@H]2O[C@H](COP(=O)(O)OP(=O)(O)OP(=O)(O)O)[C@@H](O)[C@H]2O)c(=O)[nH]1 [UTP, uridine 5′-triphosphate]
- effect on LPS+PHA-induced TNF-α release (FIG. 8) [2]: not inhibited

Compound: Nc1ncnc2c1ncn2[C@@H]1O[C@H](CO)[C@@H](O)[C@H]1O [adenosine]
- host weight loss [3]: significant inhibition of host weight loss
- host weight loss ([3]; listed as adenosine without phosphate): ineffective
- effect on LPS+PHA-induced TNF-α release (FIG. 8) [2]: least inhibition
